In patent US4011390A, “Semi-synthetic aminocyclitol aminoglycoside antibiotics and methods for the preparation thereof” (Schering-Plough Corporation, priority 1974, dated 1977):
Values after ≈ are worked out from the molar mass of the structure shown. Where two headings read alike, the source gives them in different places.

Legend:
[1] = system: Pseudomonas aeruginosa; assay: Activity against resistant strains; format: cell-based; details: gentamicin and sisomicin resistant strains
Description: (§1) In many instances, bacterial resistance is related to the organism's ability to inactivate the antibacterial agent via enzymatic (biochemical) means. Some species inactivate aminoglycosides antibiotics by acetylating the antibacterial agent, others by phosphorylation and still others by adenylylating. Some strains have several different inactivating capabilities. Further, the inactivation reactions occur at a specific site or sites on the antibacterial agent. We have shown by the compounds of this invention that alteration of sites on the antibiotic molecule not directly involved in inactivation processes can nevertheless frustrate these inactivation processes. […] The tables illustrate that the mutamicins include compounds which are active against strains having different mechanisms of inactivation of gentamicin, sisomicin, kanamycin, neomycin and torbramycin. For example, some mutamicins are effective against strains of E. coli which contain adenylylating R factors such as E. coli W677/R55 and LA290/R55. These E. coli strains are resistant to gentamicin, sisomicin and torbramycin. Some are also effective against gentamicin, tobramycin and kanamycin resistant adenylylating strains of Klebsiella pneumoniae and also kanamycin, neomycin phosphorylating strains of E. coli and Klebsiella pneumoniae. Further, some mutamicins are effective against gentamicin and sisomicin resistant strains of Pseudomonas aeruginosa and gentamicin, sisomicin, tobramycin resistant Providence which is sensitive to kanamycin. Thus, the mutamicins afford a means for combatting strains of bacteria which have already developed a variety of mechanisms for resisting the action of many of the antibiotics known in the art or currently in commercial use.

[2] = system: Providence; assay: Activity against resistant strains; format: cell-based; details: gentamicin, sisomicin, tobramycin resistant Providence
Description: as §1

[3] = system: E. coli; assay: Activity against resistant strains; format: cell-based; details: E. coli W677/R55 and LA290/R55
Description: as §1

[4] = system: Pseudomonas aeruginosa; assay: Protection Tests in Mice; format: in vivo
Description: (§2) In vivo Activity of the Mutamicin 1 and Sisomicin
(§3) Protection Tests in Mice

[5] = system: Escherichia coli; assay: Protection Tests in Mice; format: in vivo
Description: as §2, §3

[6] = system: Staphylococcus; assay: Protection Tests in Mice; format: in vivo; details: Staphylococcus Gray, read-out: PD50
Description: as §2, §3

[7] = system: Serratia; assay: MIC in Mueller-Hinton Broth pH 7.2; format: cell-based; details: pH 7.2
Description: (§4) In vitro Activity of the Mutamicins and Sisomicin
(§5) MIC's in Mueller-Hinton Broth pH 7.2

[8] = system: Bacillus subtilis; assay: MIC in Mueller-Hinton Broth pH 7.2; format: cell-based; details: ATCC6633, strain ATCC 6633
Description: as §4, §5

[9] = system: Pseudomonas aeruginosa; assay: MIC in Mueller-Hinton Broth pH 7.2; format: cell-based
Description: as §4, §5

[10] = system: Providence; assay: MIC in Mueller-Hinton Broth pH 7.2; format: cell-based; details: strain (Genta. R.) 164
Description: as §4, §5

[11] = system: Aspergillus niger; assay: MIC in Mueller-Hinton Broth pH 7.2; format: cell-based; details: pH 7.2
Description: as §4, §5

[12] = system: Staphylococcus aureus; assay: MIC in Mueller-Hinton Broth pH 7.2; format: cell-based
Description: as §4, §5

[13] = system: Klebsiella pneumoniae; assay: MIC in Mueller-Hinton Broth pH 7.2; format: cell-based
Description: as §4, §5

[14] = system: Salmonella typhimurium; assay: MIC in Mueller-Hinton Broth pH 7.2; format: cell-based; details: Salmonella enterica, strain B
Description: as §4, §5

[15] = system: Trichophyton rubrum; assay: MIC in Mueller-Hinton Broth pH 7.2; format: cell-based; details: pH 7.2
Description: as §4, §5

[16] = system: Proteus rettgeri; assay: MIC in Mueller-Hinton Broth pH 7.2; format: cell-based; details: Providencia rettgeri, pH 7.2
Description: as §4, §5

[17] = system: Bacillus subtilis; assay: Disc test, Bauer-Kirby technique with 10 Mcg. discs; format: cell-based; details: Bacillus subtilis, ATCC6633, strain ATCC 6633
Description: (§6) Disc Test Results (Replicate Tests) With The Mutamicins, Sisomicin and
(§7) Bauer-Kirby Technique^1 With 10 Mcg. Discs
(§8) ^1 Bauer, Kirby, Sherris and Turck, American Journal of Clinical

[18] = system: Providence 164; assay: as above; format: cell-based; details: strain 164
Description: as §6, §7, §8

[19] = system: Pseudomonas aeruginosa; assay: as above; format: cell-based; details: Pseudomonas aeruginosa
Description: as §6, §7, §8

[20] = system: Streptococcus pyogenes; assay: as above; format: cell-based; details: Streptococcus pyogenes
Description: as §6, §7, §8

[21] = system: Staphylococcus aureus; assay: as above; format: cell-based; details: Staphylococcus aureus
Description: as §6, §7, §8

[22] = system: Klebsiella pneumoniae; assay: as above; format: cell-based; details: Klebsiella pneumoniae
Description: as §6, §7, §8

[23] = system: Escherichia coli; assay: as above; format: cell-based; details: Escherichia coli, read-out: Zone Size
Description: as §6, §7, §8

[24] = Acute Toxicity; details: mouse, in vivo

With `CN[C@@H]1[C@@H](O)[C@@H](O[C@@H]2[C@@H](O)[C@H](O[C@H]3OC(CN)=CC[C@H]3N)[C@@H](N)C[C@H]2N)OC[C@]1(C)O` [Sisomicin, O-2,6-Diamino-2,3,4,6-tetradeoxy-α-D-glycero-hex-4-eno-pryanosyl(1→4)-O-[3-deoxy-4-C-methyl-3-(methylamino)-B-L-arabinopyranosyl(1→6)] -2-deoxy-D-streptamine, reference compound] the “activity against resistant strains” value [1] was “resistant”, the “activity against resistant Providence” value [2] was “resistant” and the “activity against strains containing adenylylating R factors” value [3] was “resistant”. For the same compound, the ED50 ([4]; Pseudomonas aeruginosa 2552, read-out: PD50) was 2.8 mg/kg, the ED50 ([4]; Pseudomonas aeruginosa 2557, read-out: PD50) was 2.7 mg/kg and the ED50 ([4]; sc, Pseudomonas aeruginosa Sc., read-out: PD50) was 1.1 mg/kg. For the same compound, the ED50 ([5]; Escherichia coli 6922, read-out: PD50) was 2 mg/kg, the ED50 ([5]; Escherichia coli Sc., read-out: PD50) was 1.7 mg/kg and the ED50 [6] was 1.8 mg/kg. The MIC [7] was 0.8 µg/mL (≈ 1.79 µM), the MIC [8] was 0.03 µg/mL (≈ 0.067 µM) and the MIC ([9]; pH 7.2) was > 25 µg/mL. For the same compound, the MIC ([9]; pH 7.2, strain 762, Mueller-Hinton Broth pH 7.2, read-out: MIC) was 0.3 µg/mL (≈ 0.67 µM), the MIC ([9]; pH 7.2, strain 1262, Mueller-Hinton Broth pH 7.2, read-out: MIC) was 0.8 µg/mL (≈ 1.79 µM) and the MIC ([9]; pH 7.2, strain 1395, Mueller-Hinton Broth pH 7.2, read-out: MIC) was 0.08 µg/mL (≈ 0.179 µM). It also gave an MIC ([9]; pH 7.2, strain D-2, Mueller-Hinton Broth pH 7.2, read-out: MIC) of 0.08 µg/mL (≈ 0.179 µM), an MIC ([9]; pH 7.2, strain Genta. acetyl Capetown 18, Mueller-Hinton Broth pH 7.2, read-out: MIC) of 7.5 µg/mL (≈ 16.8 µM) and an MIC ([9]; pH 7.2, strain Genta. acetyl Stone 130, Mueller-Hinton Broth pH 7.2, read-out: MIC) of 17.5 µg/mL (≈ 39.1 µM). For the same compound, the MIC ([9]; pH 7.2, strain NRRL B3223, Mueller-Hinton Broth pH 7.2, read-out: MIC) was 0.08 µg/mL (≈ 0.179 µM), the MIC ([9]; pH 7.2, strain Stone 20, Mueller-Hinton Broth pH 7.2, read-out: MIC) was 0.3 µg/mL (≈ 0.67 µM) and the MIC ([9]; pH 7.2, strain Stone 39, Mueller-Hinton Broth pH 7.2, read-out: MIC) was 0.8 µg/mL (≈ 1.79 µM). For the same compound, the MIC ([9]; pH 7.2, strain Stone 138, Mueller-Hinton Broth pH 7.2, read-out: MIC) was 7.5 µg/mL (≈ 16.8 µM), the MIC [10] was > 25 µg/mL and the MIC [11] was > 25 µg/mL. The MIC ([12]; ATCC6538P, pH 7.2, strain ATCC 6538P) was 0.08 µg/mL (≈ 0.179 µM), the MIC ([12]; pH 7.2, strain 59N) was 0.03 µg/mL (≈ 0.067 µM) and the MIC ([12]; pH 7.2, strain 1118) was 3 µg/mL (≈ 6.7 µM). The MIC ([12]; pH 7.2, strain Grey) was 3 µg/mL (≈ 6.7 µM), the MIC ([12]; pH 7.2, strain Wood) was 0.03 µg/mL (≈ 0.067 µM) and the MIC ([12]; pH 7.2, strain Ziegler) was 0.08 µg/mL (≈ 0.179 µM). It also gave an MIC ([13]; pH 7.2, strain Ad 18) of 0.08 µg/mL (≈ 0.179 µM), an MIC ([13]; pH 7.2, strain Genta. adenyl 121) of 0.08 µg/mL (≈ 0.179 µM) and an MIC ([13]; pH 7.2, strain Genta. adenyl 3020) of 7.5 µg/mL (≈ 16.8 µM). For the same compound, the MIC ([13]; pH 7.2, strain Genta. adenyl 3694) was 7.5 µg/mL (≈ 16.8 µM), the MIC ([13]; pH 7.2, strain Kana. phos. Ad 22) was 0.3 µg/mL (≈ 0.67 µM) and the MIC [14] was 0.3 µg/mL (≈ 0.67 µM). The MIC [15] was > 25 µg/mL, the MIC [16] was 0.8 µg/mL (≈ 1.79 µM) and the zone of inhibition at 10 µg/disc [17] was 31 mm. The zone of inhibition at 10 µg/disc [18] was 13 mm, the zone of inhibition at 10 µg/disc ([19]; strain Capetown 18) was 14 mm and the zone of inhibition at 10 µg/disc ([19]; strain D-2) was 24 mm. For the same compound, the zone of inhibition at 10 µg/disc ([19]; strain St. Michael 413) was 26 mm, the zone of inhibition at 10 µg/disc ([19]; strain St. Michael 762) was 25 mm and the zone of inhibition at 10 µg/disc ([19]; strain St. Michael 1262) was 26 mm. The zone of inhibition at 10 µg/disc ([19]; strain St. Michael 1395) was 26 mm, the zone of inhibition at 10 µg/disc ([19]; strain Stone 20) was 27 mm and the zone of inhibition at 10 µg/disc ([19]; strain Stone 39) was 25 mm. For the same compound, the zone of inhibition at 10 µg/disc ([19]; strain Stone 130) was 14 mm, the zone of inhibition at 10 µg/disc ([19]; strain Stone 138) was 10 mm and the zone of inhibition at 10 µg/disc ([20]; strain B-Cruz) was 15 mm. The zone of inhibition at 10 µg/disc ([20]; strain C) was 13 mm, the zone of inhibition at 10 µg/disc ([21]; ATCC6538P, strain ATCC 6538P) was 25 mm and the zone of inhibition at 10 µg/disc ([21]; strain 59N) was 28 mm. The zone of inhibition at 10 µg/disc ([21]; strain Wood) was 29 mm, the zone of inhibition at 10 µg/disc ([21]; strain Ziegler) was 26 mm and the zone of inhibition at 10 µg/disc ([22]; strain Ad 17) was 22 mm. For the same compound, the zone of inhibition at 10 µg/disc ([22]; strain Ad 18) was 23 mm, the zone of inhibition at 10 µg/disc ([22]; strain Georgetown 3020) was 13 mm and the zone of inhibition at 10 µg/disc ([22]; strain Georgetown 3694) was 14 mm. The zone of inhibition at 10 µg/disc ([23]; ATCC10536, strain ATCC 10536, 10 Mcg. discs) was 28 mm, the zone of inhibition at 10 µg/disc [23] was 15 mm and the zone of inhibition at 10 µg/disc ([23]; strain 589, 10 Mcg. discs) was 24 mm. For the same compound, the zone of inhibition at 10 µg/disc ([23]; strain JR88, 10 Mcg. discs) was 11 mm, the zone of inhibition at 10 µg/disc ([23]; strain JR90, 10 Mcg. discs) was 0 mm and the zone of inhibition at 10 µg/disc ([23]; strain LA290/R55, 10 Mcg. discs) was 13 mm. It also gave a zone of inhibition at 10 µg/disc ([23]; strain Swidinsky 4195, 10 Mcg. discs) of 24 mm, an LD50 ([24]; ip) of 190 mg/kg and an LD50 ([24]; iv) of 34 mg/kg.
